# Legend:
# Assay in all cases: Fungal growth on SABHI agar containing CMT (Example 38)
# Type in all cases: cell-based
# [1] = system: Aspergillus fumigatus ATCC 1022; conditions: for Anti-fungal activity (summary in words): 25 μg/ml agar, Example 38; for Growth at 25 μg/ml compared to control at 24 hrs incubation / Growth at 25 μg/ml compared to control at 48 hours: 30° C., growth grade
# Protocol: (§1) The following fungi were inoculated onto potato dextrose agar (PDA) from stock cultures and incubated aerobically at 30° C.: Aspergillus [NT] 1022, Penicillium sp. (laboratory isolate), Candida albicans, ATCC 14053, and Rhizopus sp. […] The conidia were suspended in 0.9% saline and the turbidity was adjusted to match a 0.5 MacFarland standard (equivalent to approximately 1.5×10^8 cells). Candida albicans was suspended in saline and adjusted to 0.5 MacFarland in a similar manner. These suspensions were diluted 1:100 in sterile 0.9% saline. SABHI Agar (Difco) pH 7.0 was prepared in 100 ml amounts and sterilized at 121° C. for 15 min. […] SABHI Agar plates of each CMT and SAHBI agar without CMT using dimethylsulphoxide (DMSO) as a control were inoculated with 10 μl of conidia suspension of Aspergillus fumigatus, Penicillium sp. and Rhizopus sp. and 10 μl suspension of Candida albicans prepared as described above. The plates were then incubated aerobically for 24 hour and for 48 hours at 30° C. The results are set forth in Table 1 (24 hr. incubation) and Table 2 (48 hr. incubation). [table]
# [2] = system: Penicillium sp. (laboratory isolate); conditions: for Anti-fungal activity (summary in words): 25 μg/ml agar, Example 38; for Growth at 25 μg/ml compared to control at 24 hrs incubation / Growth at 25 μg/ml compared to control at 48 hours: 30° C., growth grade
# Protocol: as §1
# [3] = system: Candida albicans, ATCC 14053; conditions: for Growth at 25 μg/ml compared to control at 24 hrs incubation / Growth at 25 μg/ml compared to control at 48 hours: 30° C., growth grade; for Anti-fungal activity (summary in words): 25 μg/ml agar, Example 38
# Protocol: as §1
# Rhizopus sp. = conditions: for Growth at 25 μg/ml compared to control at 24 hrs incubation / Growth at 25 μg/ml compared to control at 48 hours: 30° C., growth grade
# Protocol: as §1
Compound,Anti-fungal activity (summary in words) [1],Anti-fungal activity (summary in words) [2],Growth at 25 μg/ml compared to control at 24 hrs incubation [3],Growth at 25 μg/ml compared to control at 48 hours [3],Growth at 25 μg/ml compared to control at 24 hrs incubation [1],Growth at 25 μg/ml compared to control at 48 hours [1],Growth at 25 μg/ml compared to control at 24 hrs incubation [2],Growth at 25 μg/ml compared to control at 48 hours [2],Growth at 25 μg/ml compared to control at 24 hrs incubation (Rhizopus sp.),Growth at 25 μg/ml compared to control at 48 hours (Rhizopus sp.),Anti-fungal activity (summary in words) [3],"Anti-fungal activity (summary in words) (Rhizopus sp.; 25 μg/ml agar, Example 38)"
"CC1(O)c2c(Cl)ccc(O)c2C(=O)C2=C(O)C3(O)C(=O)C(C(N)=O)=C(O)CC3CC21 (stereo not drawn) [COL 4, 7-chloro-4-dedimethylaminotetracycline]",demonstrated activity,demonstrated activity,,,,,,,,,,
"NC(=O)C1=C(O)CC2CC3Cc4ccc(N)c(O)c4C(=O)C3=C(O)C2(O)C1=O (stereo not drawn) [COL 308, 9-amino-6-demethyl-6-deoxy-4-dedimethylaminotetracycline]",demonstrated activity,demonstrated activity,4 (Level of growth in the absence of anti-fungal agent (control).),4 (Level of growth in the absence of anti-fungal agent (control).),0 (complete inhibition of growth.),1 (75% reduction in growth in colonies compared to control.),0 (complete inhibition of growth.),0 (complete inhibition of growth.),4 (Level of growth in the absence of anti-fungal agent (control).),4 (Level of growth in the absence of anti-fungal agent (control).),,
"O=C(NCN1CCNCC1)C1=C(O)CC2CC3Cc4cccc(O)c4C(=O)C3=C(O)C2(O)C1=O (stereo not drawn) [COL 315, 2-CONHCH2-piperazin-1-yl-6-demethyl-6-deoxy-4-dedimethylaminotetracycline]",activity against all the fungi tested,activity against all the fungi tested,0 (complete inhibition of growth.),0 (complete inhibition of growth.),0 (complete inhibition of growth.),0 (complete inhibition of growth.),0 (complete inhibition of growth.),0 (complete inhibition of growth.),1 (75% reduction in growth in colonies compared to control.),1 (75% reduction in growth in colonies compared to control.),activity against all the fungi tested,activity against all the fungi tested
"NC(=O)C1=C(O)CC2CC3Cc4c([N+](=O)[O-])ccc(O)c4C(=O)C3=C(O)C2(O)C1=O (stereo not drawn) [COL 302, 7-nitro-6-demethyl-6-deoxy-4-dedimethylaminotetracycline]",,,4 (Level of growth in the absence of anti-fungal agent (control).),4 (Level of growth in the absence of anti-fungal agent (control).),0 (complete inhibition of growth.),4 (Level of growth in the absence of anti-fungal agent (control).),3 (25% reduction in growth of colonies compared to control.),4 (Level of growth in the absence of anti-fungal agent (control).),4 (Level of growth in the absence of anti-fungal agent (control).),4 (Level of growth in the absence of anti-fungal agent (control).),,
4-Dedimethylamino-7-dimethylamino-6-demethyl-6-deoxy-9-ethoxythiocarbonylthio-tetracycline sulfate [Example 7],,,0 (complete inhibition of growth.),0 (complete inhibition of growth.),0 (complete inhibition of growth.),4 (Level of growth in the absence of anti-fungal agent (control).),3 (25% reduction in growth of colonies compared to control.),4 (Level of growth in the absence of anti-fungal agent (control).),4 (Level of growth in the absence of anti-fungal agent (control).),3 (25% reduction in growth of colonies compared to control.),,
"CN(C)CC(=O)Nc1ccc2c(c1O)C(=O)C1=C(O)C3(O)C(=O)C(C(N)=O)=C(O)CC3CC1C2 (stereo not drawn) [COL 309, 9-dimethylaminoacetamido-6-demethyl-6-deoxy-4-dedimethylaminotetracycline]",,,4 (Level of growth in the absence of anti-fungal agent (control).),4 (Level of growth in the absence of anti-fungal agent (control).),,4 (Level of growth in the absence of anti-fungal agent (control).),3 (25% reduction in growth of colonies compared to control.),4 (Level of growth in the absence of anti-fungal agent (control).),4 (Level of growth in the absence of anti-fungal agent (control).),4 (Level of growth in the absence of anti-fungal agent (control).),,
"NC(=O)C1=C(O)CC2CC3Cc4ccc([N+](=O)[O-])c(O)c4C(=O)C3=C(O)C2(O)C1=O (stereo not drawn) [COL 303, 9-nitro-6-demethyl-6-deoxy-4-dedimethylaminotetracycline]",,,3 (25% reduction in growth of colonies compared to control.),4 (Level of growth in the absence of anti-fungal agent (control).),,4 (Level of growth in the absence of anti-fungal agent (control).),3 (25% reduction in growth of colonies compared to control.),4 (Level of growth in the absence of anti-fungal agent (control).),4 (Level of growth in the absence of anti-fungal agent (control).),4 (Level of growth in the absence of anti-fungal agent (control).),,
"CC(=O)Nc1cc(N(C)C)c2c(c1O)C(=O)C1=C(O)C3(O)C(=O)C(C(N)=O)=C(O)CC3CC1C2.O=S(=O)(O)O (stereo not drawn) [Example 3, 9-Acetamido-4-dedimethylamino-7-dimethylamino-6-demethyl-6-deoxytetracycline sulfate]",,,1 (75% reduction in growth in colonies compared to control.),4 (Level of growth in the absence of anti-fungal agent (control).),0 (complete inhibition of growth.),4 (Level of growth in the absence of anti-fungal agent (control).),0 (complete inhibition of growth.),4 (Level of growth in the absence of anti-fungal agent (control).),3 (25% reduction in growth of colonies compared to control.),1 (75% reduction in growth in colonies compared to control.),,
"CC1(O)c2cccc(O)c2C(=O)C2=C(O)C3C(=O)C(C(N)=O)=C(O)CC3CC21 (stereo not drawn) [COL 7, 4-dedimethylamino-12α-deoxytetracycline]",,,,,,,,,,,strong activity,

# Source: patent publication US20050153943A1, “Methods of simultaneously treating mucositis and fungal infection” (priority 2002, published 2005)
